The record followed here is PMC5218480 (PLoS ONE, 2017).

The assay concerns MV-4-11 cells. Nature of the assay: Gene expression microarray analysis (Affymetrix PrimeView) and GSEA. In kind it is cell-based, human. On the set-up: RFU PODN (11730768_x_at) / Fold change /veh PODN (11730768_x_at) / RFU LINC00158 (11744669_a_at) / Fold change /veh LINC00158 (11744669_a_at) / RFU DUSP10 (11751237_a_at) / Fold change /veh DUSP10 (11751237_a_at) / RFU ID3 (11757404_x_at) / Fold change /veh ID3 (11757404_x_at) / RFU PLEKHG5 (11737974_s_at) / Fold change /veh PLEKHG5 (11737974_s_at) / RFU LRRC4B (11730491_at) / Fold change /veh LRRC4B (11730491_at) / RFU GIMAP4 (11747438_a_at) / Fold change /veh GIMAP4 (11747438_a_at) / RFU KRT8 (11758183_x_at) / Fold change /veh KRT8 (11758183_x_at) / RFU CNN1 (11734310_a_at) / Fold change /veh CNN1 (11734310_a_at) / RFU VPS37D (11726825_at) / Fold change /veh VPS37D (11726825_at) / RFU C10orf10 (11716522_x_at) / Fold change /veh C10orf10 (11716522_x_at) / RFU KIR2DL2 /// KIR2DL4 /// KIR2DL5A /// KIR2DL5B /// KIR2DS1 /// KIR2DS2 /// KIR2DS3 /// KIR2DS4 /// KIR3DL3 /// KIR3DL3 /// KIR3DS1 (11738374_at) / Fold change /veh KIR2DL2 /// KIR2DL4 /// KIR2DL5A /// KIR2DL5B /// KIR2DS1 /// KIR2DS2 /// KIR2DS3 /// KIR2DS4 /// KIR3DL3 /// KIR3DL3 /// KIR3DS1 (11738374_at) / RFU C1QL1 (11718748_at) / Fold change /veh C1QL1 (11718748_at) / RFU TMPRSS4 (11747572_a_at) / Fold change /veh TMPRSS4 (11747572_a_at) / RFU HAMP (11756126_x_at) / Fold change /veh HAMP (11756126_x_at) / RFU RNFT2 (11725882_a_at) / Fold change /veh RNFT2 (11725882_a_at) / RFU NR4A2 (11747474_a_at) / Fold change /veh NR4A2 (11747474_a_at) / RFU ABCC12 (11746883_a_at) / Fold change /veh ABCC12 (11746883_a_at) / RFU TMEM136 (11760407_x_at) / Fold change /veh TMEM136 (11760407_x_at) / RFU CLDN22 /// WWC2 (11732394_at) / Fold change /veh CLDN22 /// WWC2 (11732394_at) / RFU HLA-DPB1 (11760878_x_at) / Fold change /veh HLA-DPB1 (11760878_x_at) / RFU SPINT1 (11716480_a_at) / Fold change /veh SPINT1 (11716480_a_at) / RFU GAP43 (11754022_s_at) / Fold change /veh GAP43 (11754022_s_at) / RFU A4GNT (11735810_at) / Fold change /veh A4GNT (11735810_at) / RFU PRB3 (11715151_x_at) / Fold change /veh PRB3 (11715151_x_at) / RFU TUBB4B (11761932_at) / Fold change /veh TUBB4B (11761932_at) / RFU CAPN14 (11732068_a_at) / Fold change /veh CAPN14 (11732068_a_at) / RFU TMCC2 (11721928_a_at) / Fold change /veh TMCC2 (11721928_a_at) / RFU IRGQ (11745062_a_at) / Fold change /veh IRGQ (11745062_a_at) / RFU FAM174B (11720279_a_at) / Fold change /veh FAM174B (11720279_a_at) / RFU TMPRSS4 (11748680_a_at) / Fold change /veh TMPRSS4 (11748680_a_at) / RFU FAM212B (11763350_a_at) / Fold change /veh FAM212B (11763350_a_at) / RFU PLEKHG5 (11743358_a_at) / Fold change /veh PLEKHG5 (11743358_a_at) / RFU ZSCAN30 (11745921_a_at) / Fold change /veh ZSCAN30 (11745921_a_at) / RFU CMKLR1 (11741424_a_at) / Fold change /veh CMKLR1 (11741424_a_at) / RFU LOC101060620 /// MAPK8IP1 (11723275_at) / Fold change /veh LOC101060620 /// MAPK8IP1 (11723275_at) / RFU SPTSSB (11747773_x_at) / Fold change /veh SPTSSB (11747773_x_at) / RFU PRSS12 (11739890_at) / Fold change /veh PRSS12 (11739890_at) / RFU BIN1 (11741810_x_at) / Fold change /veh BIN1 (11741810_x_at) / RFU WNT11 (11732464_a_at) / Fold change /veh WNT11 (11732464_a_at) / RFU C10orf10 (11716521_a_at) / Fold change /veh C10orf10 (11716521_a_at) / RFU C5orf56 (11738089_at) / Fold change /veh C5orf56 (11738089_at) / RFU CYB561 (11721691_x_at) / Fold change /veh CYB561 (11721691_x_at) / RFU ANKRD19P (11752326_a_at) / Fold change /veh ANKRD19P (11752326_a_at) / RFU OR2T12 /// OR2T33 /// OR2T8 (11738714_s_at) / Fold change /veh OR2T12 /// OR2T33 /// OR2T8 (11738714_s_at) / RFU VCAN (11748164_a_at) / Fold change /veh VCAN (11748164_a_at) / RFU JSRP1 (11732532_at) / Fold change /veh JSRP1 (11732532_at) / RFU KRTAP10-11 (11738290_x_at) / Fold change /veh KRTAP10-11 (11738290_x_at) / RFU MYO3A (11730013_a_at) / Fold change /veh MYO3A (11730013_a_at) / RFU EBF3 (11725865_a_at) / Fold change /veh EBF3 (11725865_a_at) / RFU CAMK2N1 (11719241_x_at) / Fold change /veh CAMK2N1 (11719241_x_at) / RFU C5orf56 (11738088_a_at) / Fold change /veh C5orf56 (11738088_a_at) / RFU OLFML3 (11715873_a_at) / Fold change /veh OLFML3 (11715873_a_at) / RFU LOC100653217 /// NTM (11731650_a_at) / Fold change /veh LOC100653217 /// NTM (11731650_a_at) / RFU MAPK11 (11762145_a_at) / Fold change /veh MAPK11 (11762145_a_at) / RFU FIZ1 (11724087_x_at) / Fold change /veh FIZ1 (11724087_x_at) / RFU OASL (11726364_x_at) / Fold change /veh OASL (11726364_x_at) / RFU SOX15 (11748057_x_at) / Fold change /veh SOX15 (11748057_x_at) / RFU CD79A (11719716_a_at) / Fold change /veh CD79A (11719716_a_at) / RFU HIST1H1D (11736915_at) / Fold change /veh HIST1H1D (11736915_at) / RFU CASKIN2 (11723855_a_at) / Fold change /veh CASKIN2 (11723855_a_at) / RFU LOC730098 (11760151_x_at) / Fold change /veh LOC730098 (11760151_x_at) / RFU OR4N2 (11742367_at) / Fold change /veh OR4N2 (11742367_at) / RFU PRRT2 (11749266_a_at) / Fold change /veh PRRT2 (11749266_a_at) / RFU SNX32 (11753110_a_at) / Fold change /veh SNX32 (11753110_a_at) / RFU CDHR5 (11726645_a_at) / Fold change /veh CDHR5 (11726645_a_at) / RFU RCAN1 (11760418_a_at) / Fold change /veh RCAN1 (11760418_a_at) / RFU FAM167A (11723789_a_at) / Fold change /veh FAM167A (11723789_a_at) / RFU FAM26E (11764081_at) / Fold change /veh FAM26E (11764081_at) / RFU ISYNA1 (11749810_s_at) / Fold change /veh ISYNA1 (11749810_s_at) / RFU ACY1 (11761880_at) / Fold change /veh ACY1 (11761880_at) / RFU 11764098_at / Fold change /veh 11764098_at / RFU SAMD14 (11745864_x_at) / Fold change /veh SAMD14 (11745864_x_at) / RFU NPB (11741838_a_at) / Fold change /veh NPB (11741838_a_at) / RFU TMPRSS6 (11731388_a_at) / Fold change /veh TMPRSS6 (11731388_a_at) / RFU KRTAP10-2 (11738614_at) / Fold change /veh KRTAP10-2 (11738614_at) / RFU ARHGAP8 /// PRR5-ARHGAP8 (11727945_x_at) / Fold change /veh ARHGAP8 /// PRR5-ARHGAP8 (11727945_x_at) / RFU KRTAP5-7 /// NADSYN1 (11734609_at) / Fold change /veh KRTAP5-7 /// NADSYN1 (11734609_at) / RFU RASL12 (11751679_a_at) / Fold change /veh RASL12 (11751679_a_at) / RFU CDKN2B (11736163_a_at) / Fold change /veh CDKN2B (11736163_a_at) / RFU PRF1 (11729649_at) / Fold change /veh PRF1 (11729649_at) / RFU, ZNF638 /// ZNF638-IT1 / Fold change vs veh, ZNF638 /// ZNF638-IT1 / RFU, PANK3 / Fold change vs veh, PANK3 / RFU, SH3YL1 / Fold change vs veh, SH3YL1 / RFU, ZEB2 / Fold change vs veh, ZEB2 / RFU, NRIP1 / Fold change vs veh, NRIP1 / RFU, PTTG1IP / Fold change vs veh, PTTG1IP / RFU, CAPN2 / Fold change vs veh, CAPN2 / RFU, MED14 / Fold change vs veh, MED14 / RFU, SNORA58 / Fold change vs veh, SNORA58 / RFU, C1orf63 / Fold change vs veh, C1orf63 / RFU, LRRFIP1 / Fold change vs veh, LRRFIP1 / RFU, NDUFAF7 / Fold change vs veh, NDUFAF7 / RFU, SLC12A2 / Fold change vs veh, SLC12A2 / RFU, IBTK / Fold change vs veh, IBTK / RFU, ESF1 / Fold change vs veh, ESF1 / Fold change vs veh, TMEM50B / RFU, TAOK1 / Fold change vs veh, TAOK1 / RFU, ACBD3 / Fold change vs veh, ACBD3 / RFU, TMA16 / Fold change vs veh, TMA16 / RFU, RWDD3 / Fold change vs veh, RWDD3 / RFU, BCAT1 / Fold change vs veh, BCAT1 / RFU, EDEM3 / Fold change vs veh, EDEM3 / RFU, TMEM33 / Fold change vs veh, TMEM33 / RFU, WDR75 / Fold change vs veh, WDR75 / RFU, AHCTF1 / Fold change vs veh, AHCTF1 / RFU, TFRC / Fold change vs veh, TFRC / RFU, ZDHHC17 / Fold change vs veh, ZDHHC17 / RFU, NOM1 / Fold change vs veh, NOM1 / RFU, ARL8B / Fold change vs veh, ARL8B / RFU, ZBTB11 / Fold change vs veh, ZBTB11 / RFU, TAMM41 / Fold change vs veh, TAMM41 / RFU, KIAA1704 /// LOC100996395 / Fold change vs veh, KIAA1704 /// LOC100996395 / RFU, ING1 / Fold change vs veh, ING1 / RFU, TRMT61B / Fold change vs veh, TRMT61B / RFU, FUBP3 / Fold change vs veh, FUBP3 / RFU, TP53 / Fold change vs veh, TP53 / RFU, TNKS2 / Fold change vs veh, TNKS2 / RFU, ZFP14 / Fold change vs veh, ZFP14 / RFU, ACTR2 / Fold change vs veh, ACTR2 / RFU, PPP3R1 / Fold change vs veh, PPP3R1 / RFU, PIK3R1 / Fold change vs veh, PIK3R1 / RFU, HNRNPA1 / Fold change vs veh, HNRNPA1 / RFU, RNF170 / Fold change vs veh, RNF170 / RFU, ZNF28 / Fold change vs veh, ZNF28 / RFU, RNGTT / Fold change vs veh, RNGTT / RFU, OGT / Fold change vs veh, OGT / RFU, BRD1 / Fold change vs veh, BRD1 / RFU, MARS / Fold change vs veh, MARS / RFU, ZNF655 / Fold change vs veh, ZNF655 / RFU, FAHD1 / Fold change vs veh, FAHD1 / RFU, BDP1 / Fold change vs veh, BDP1 / RFU, LRRCC1 / Fold change vs veh, LRRCC1 / RFU, ARID1A / Fold change vs veh, ARID1A / RFU, ZNF146 / Fold change vs veh, ZNF146 / RFU, ZNF330 / Fold change vs veh, ZNF330 / RFU, GPN3 / Fold change vs veh, GPN3 / RFU, C9orf123 / Fold change vs veh, C9orf123 / RFU, N4BP2L2 / Fold change vs veh, N4BP2L2 / RFU, ARFIP1 / Fold change vs veh, ARFIP1 / RFU, FAM179B / Fold change vs veh, FAM179B / RFU, BCL10 / Fold change vs veh, BCL10 / RFU, UHRF1BP1L / Fold change vs veh, UHRF1BP1L / RFU, BET1 / Fold change vs veh, BET1 / RFU, CNOT2 / Fold change vs veh, CNOT2 / RFU, ZNF268 / Fold change vs veh, ZNF268 / Fold change vs veh, ZNF507 / RFU, DGCR2 / Fold change vs veh, DGCR2 / RFU, WDSUB1 / Fold change vs veh, WDSUB1 / Fold change vs veh, HSP90B1 /// MIR3652 / RFU, ADSS / Fold change vs veh, ADSS / RFU, GK / Fold change vs veh, GK / RFU, ZNF148 / Fold change vs veh, ZNF148 / RFU, TAF9 / Fold change vs veh, TAF9 / RFU, SLC1A5 / Fold change vs veh, SLC1A5 / RFU, SLMO2 / Fold change vs veh, SLMO2 / RFU, ABCC4 / Fold change vs veh, ABCC4 / RFU, LOC101060439 /// RAP1B / Fold change vs veh, LOC101060439 /// RAP1B / RFU, RFX7 / Fold change vs veh, RFX7 / RFU, GTPBP10 / Fold change vs veh, GTPBP10 / RFU, CNEP1R1 / Fold change vs veh, CNEP1R1 / RFU, BIVM-ERCC5 /// ERCC5 / Fold change vs veh, BIVM-ERCC5 /// ERCC5 / RFU, ILF3 / Fold change vs veh, ILF3 / RFU 11762660_at / Fold change /veh 11762660_at / RFU VCAN (11757783_s_at) / Fold change /veh VCAN (11757783_s_at) / RFU DDX43 (11728927_at) / Fold change /veh DDX43 (11728927_at) / RFU KRT8 (11758188_x_at) / Fold change /veh KRT8 (11758188_x_at) / RFU NKD1 (11759106_at) / Fold change /veh NKD1 (11759106_at) / RFU SRD5A1 (11742802_a_at) / Fold change /veh SRD5A1 (11742802_a_at) / RFU TPSAB1 /// TPSB2 (11721975_s_at) / Fold change /veh TPSAB1 /// TPSB2 (11721975_s_at) / RFU GSTM3 (11746129_a_at) / Fold change /veh GSTM3 (11746129_a_at) / RFU IL23R (11737362_x_at) / Fold change /veh IL23R (11737362_x_at) / RFU TMEM51 (11727254_a_at) / Fold change /veh TMEM51 (11727254_a_at) / RFU PIWIL2 (11732686_x_at) / Fold change /veh PIWIL2 (11732686_x_at) / RFU ORM1 (11744905_x_at) / Fold change /veh ORM1 (11744905_x_at) / RFU CCDC152 (11743942_at) / Fold change /veh CCDC152 (11743942_at) / RFU ECM1 (11717891_a_at) / Fold change /veh ECM1 (11717891_a_at) / RFU IL23R (11748794_a_at) / Fold change /veh IL23R (11748794_a_at) / RFU TNFAIP8L3 (11732012_x_at) / Fold change /veh TNFAIP8L3 (11732012_x_at) / RFU MBOAT4 (11741988_at) / Fold change /veh MBOAT4 (11741988_at) / RFU 11764193_at / Fold change /veh 11764193_at / RFU TMEM53 (11763286_at) / Fold change /veh TMEM53 (11763286_at) / RFU MAGEB2 (11727129_at) / Fold change /veh MAGEB2 (11727129_at) / RFU TMEM200A (11744735_a_at) / Fold change /veh TMEM200A (11744735_a_at) / RFU CCDC152 (11751479_a_at) / Fold change /veh CCDC152 (11751479_a_at) / RFU FAM211A (11726209_a_at) / Fold change /veh FAM211A (11726209_a_at) / RFU RGS16 (11746705_a_at) / Fold change /veh RGS16 (11746705_a_at) / RFU VCAN (11755009_s_at) / Fold change /veh VCAN (11755009_s_at) / RFU RHOB (11743442_s_at) / Fold change /veh RHOB (11743442_s_at) / RFU RGS16 (11720943_a_at) / Fold change /veh RGS16 (11720943_a_at) / RFU RGS16 (11720944_at) / Fold change /veh RGS16 (11720944_at) / RFU, VPS4B / Fold change vs veh, VPS4B / RFU, CREB1 / Fold change vs veh, CREB1 / RFU, DNAJC13 / Fold change vs veh, DNAJC13 / RFU, GNAQ / Fold change vs veh, GNAQ / RFU, CDK5R1 / Fold change vs veh, CDK5R1 / RFU, ZRANB3 / Fold change vs veh, ZRANB3 / RFU, CUL4A / Fold change vs veh, CUL4A / RFU, CCNY / Fold change vs veh, CCNY / RFU, UFL1 / Fold change vs veh, UFL1 / RFU, COG3 / Fold change vs veh, COG3 / RFU, DIAPH2 / Fold change vs veh, DIAPH2 / RFU, SKA2 / Fold change vs veh, SKA2 / RFU, AFF3 / Fold change vs veh, AFF3 / RFU, LMF1 / Fold change vs veh, LMF1 / RFU, IPO11 / Fold change vs veh, IPO11 / RFU, DFFB / Fold change vs veh, DFFB / RFU, FOXP1 / Fold change vs veh, FOXP1 / RFU, CARD8 / Fold change vs veh, CARD8 / RFU, STRN3 / Fold change vs veh, STRN3 / RFU, ADK / Fold change vs veh, ADK / RFU, RASSF2 / Fold change vs veh, RASSF2 / RFU, WIPF1 / Fold change vs veh, WIPF1 / RFU, LARP1B / Fold change vs veh, LARP1B / RFU, RASA1 / Fold change vs veh, RASA1 / RFU, RB1 / Fold change vs veh, RB1 / RFU, PPFIA1 / Fold change vs veh, PPFIA1 / RFU, MAT2A / Fold change vs veh, MAT2A / RFU, CCT5 / Fold change vs veh, CCT5 / RFU, WDR92 / Fold change vs veh, WDR92 / RFU, CUX1 / Fold change vs veh, CUX1 / RFU, TTC7A / Fold change vs veh, TTC7A / RFU, TMEM135 / Fold change vs veh, TMEM135 / RFU, DEPTOR / Fold change vs veh, DEPTOR / RFU, CPM / Fold change vs veh, CPM / RFU, DNAJB6 / Fold change vs veh, DNAJB6 / RFU, CACNA2D3 / Fold change vs veh, CACNA2D3 / RFU, DTX4 / Fold change vs veh, DTX4 / RFU, TFCP2 / Fold change vs veh, TFCP2 / RFU, GMCL1 /// GMCL1P1 / Fold change vs veh, GMCL1 /// GMCL1P1 / RFU, AEBP2 / Fold change vs veh, AEBP2 / RFU, SNHG1 /// SNORD22 /// SNORD25 /// SNORD26 /// SNORD27 /// SNORD28 /// SNORD29 /// SNORD31 / Fold change vs veh, SNHG1 /// SNORD22 /// SNORD25 /// SNORD26 /// SNORD27 /// SNORD28 /// SNORD29 /// SNORD31 / Fold change (Aza/veh), C12orf56 (ProbeSet 11735607_a_at) / Fold change (ACY-1035/veh), C12orf56 (ProbeSet 11735607_a_at) / Fold change (Aza/veh), FGFR1OP (ProbeSet 11751329_s_at) / Fold change (ACY-1035/veh), FGFR1OP (ProbeSet 11751329_s_at) / Fold change (Aza/veh), VPS36 (ProbeSet 11739960_a_at) / Fold change (ACY-1035/veh), VPS36 (ProbeSet 11739960_a_at) / RFU SYPL1 (11715823_x_at) / Fold change /veh SYPL1 (11715823_x_at) / RFU IGFBP7 (11715501_s_at) / Fold change /veh IGFBP7 (11715501_s_at) / RFU REEP3 (11722064_at) / Fold change /veh REEP3 (11722064_at) / RFU IGLL1 (11728026_x_at) / Fold change /veh IGLL1 (11728026_x_at): dose or concentration left out as unconfirmed. To be noted: MV-4-11 cells, 48 hours.

For `Nc1ncn([C@@H]2O[C@H](CO)[C@@H](O)[C@H]2O)c(=O)n1` [azacitidine], the “RFU PLEKHG5 (11737974_s_at)” value is recorded as 50.98 RFU.
